Reference: patent US11560417B2, “Isolated polypeptides of CD44 and uses thereof” (Yissum Research Development Company of the Hebrew …, priority 2014, dated 2023)
Ends that are not written are not given here. Peptide text beside a SMILES is read from it.

Assays:
[1] = system: CIA mice on DBA/1 background; assay: Paw swelling in collagen-induced arthritis (CIA) mice on DBA/1 background; format: in vivo, mouse; details: for joint inflammation (paw swelling) vs PBS / hind paws that remained healthy (paw swelling less than 2 mm): 200 μg per injection i.p.; for joint inflammation (paw swelling) vs PBS: daily for 9-10 days from onset of disease; for hind paws that remained healthy (paw swelling less than 2 mm): daily for 9 days, CIA DBA/1 mice; for paw swelling response vs PBS: 4 times within 6 days from onset of disease
Description: (§1) Mice—Collagen-induced arthritis (CIA) was generated in DBA/1 or C57BL mice by injection of type II collagen as described in Nedvetzki et al., PNAS 101, 18081-18086, 2004.
Treatment protocol—PBS, or the 9-mer RA peptide (SEQ ID NO: 3) at a dose of 25 μg, 100 μg or 150 μg per injection was administered i.p to CIA mice for 4 times within 6 days (see Table 3 below). PBS (n=7), or 5-mer RA peptide (SEQ ID NO: 1, n=7) at a dose of 70 μg per injection were administered i.p to CIA mice on C57BL/6 background for 10 consecutive days. In all groups first injection was given at the onset of disease as determined by paw swelling.
(§2) Evaluation of joint inflammation—Inflammation was evaluated by the paw swelling response. Paw swelling was measured by micro caliber. Paw swelling at range of 2.1-2.3 mm was considered “onset of disease” and the starting point for injection of the peptides. […] All measurements were performed under blind manner (For additional details see Nedvetzki, et al., (2004) PNAS 101, 18081-18086).
(§3) Treatment protocol—PBS, or the tested peptides [Ac-TRMTADVDR-NH2 (SEQ ID NO: 6), Ac-MTADVDR-NH2 (SEQ ID NO: 5), Ac-MTADV-NH2 (SEQ ID NO: 4) and scrambled Ac-TMDVADR-NH2 (SEQ ID NO: 7)] at doses of 70 or 200 μg per injection were administered i.p to […] for 9-10 consecutive days (see Tables 4-7 below). As a non-specific control, several mice were administered I.P. with Dexamethsone (Dex) at a dose of 50 μg, following the same protocol. In all groups first injection was given at the onset of disease as determined by paw swelling.
Evaluation of joint inflammation—As described in Example 2 above. Paw swelling of less than 2 mm was considered healthy.

[2] = system: fibroblasts from the inflammatory joint of an RA patient; format: cell-based, human
Description: Cells—Fibroblasts from the inflammatory joint of an RA patient were cultured and maintained as shown in Bendersky et al, J Immunol.; 188:4349-59, 2012. A quantity of 20,000 cells was added to each one of the 96 well plates with the indicated concentrations of peptide, serum amyloid A or α-lactalbumin.
MTT assay—MTT assay was effected as shown in Madhyastha et al. (2015) J Clin Diagn Res.; 9 :ZCO5-8.
An in-vitro model was developed as a tool to evaluate the biological activity of the generated RA peptides. To this end, fibroblasts from the inflammatory joint of an RA patient were incubated in-vitro and the effect of the peptides on cell survival was evaluated by a MTT assay.

[3] = system: CIA mice on C57BL/6 background; assay: Paw/footpad swelling in CIA mice on C57BL/6 background; format: in vivo, mouse; details: 10 consecutive days; for joint inflammation (paw swelling) vs PBS: 70 μg per injection i.p.
Description: as §1, §2, §3
Treatment protocol—PBS, or the tested peptide [Ac-MTADV-NH2 (SEQ ID NO: 4)] at doses of 10, 25, 70, 200 or 600 μg per injection were administered i.p to CIA mice for 10 consecutive days (see Tables 8-9 below). In all groups first injection was given at the onset of disease as determined by paw swelling.
To evaluate the optimal anti-inflammatory therapeutic dose of the 5-mer RA peptide, several different doses of the protected peptide (SEQ ID NO: 4) were administered to CIA mice on C57BL/6 background and joint inflammation was determined by footpad swelling measurements (electronic automatic measurements of the volume of the footpad, based on Archimedes observation).

C57BL/6 mice = assay: Delayed type hypersensitivity (DTH) response to oxazolone; format: in vivo, mouse; details: oxazolone sensitization day 0, elicitation day 6, reading day 7; peptide 200 μg daily
Description: DTH model—C57BL/6 mice were painted at their abdomen with oxazolone solution (sensitization). On day 6, the right ear of each mouse was painted with the same hapten, oxazolone (elicitation), to generate delayed type hypersensitivity (DTH) response. The differences in thickness between the right and the left ears, indicating DTH development, were determined by microcaliper 24 hours later. DTH induction indicates a normal immune response. For additional details see Weiss et al., (2000) Proc. Natl. Acad. Sci. USA. 97, 285-290.
Treatment protocol—PBS and 5-mer peptide (SEQ ID NO: 1) at a dose of 200 μg was administered one day before the sensitization and then every day during the sensitization period (7 days).

[4] = system: CIA mice on C57BL/6 background; assay: ELISA for neutralizing anti-peptide antibodies in serum of treated CIA mice; format: in vivo, mouse; details: 70 μg per injection i.p., 10 consecutive days; ELISA plates coated with peptide
Description: Treatment protocol—PBS, or 5-mer RA peptide (SEQ ID NO: 1) at a dose of 70 μg per injection were administered i.p to CIA mice on C57BL/6 background for 10 consecutive days. In all groups first injection was given at the onset of disease as determined by paw swelling.
ELISA—96 wells ELISA plates were coated with 5-mer RA peptide (SEQ ID NO: 1), collagen or immunoglobulin (positive control). Serum from CIA mice treated with PBS or the 5-mer RA peptide was added to the coated plates and the presence of neutralizing antibodies against collagen or the RA peptide was detected with anti-immunoglobulin+detection system. The plate wells were coated with 1 mg/ml peptide or protein. Mouse serum was added to the plate wells for 15 hours in cold temperature. The detection system included HRP-anti-mouse IgG and TMB (Bako) substrate. Plates were analysed using an ELISA reader at a wave length of 450 nm.

Ac-MTADVDR-NH2 [7-mer protected RA peptide]
joint inflammation (paw swelling) vs PBS [1]: reduces joint inflammation
hind paws that remained healthy (paw swelling less than 2 mm) [1]: more than 60%

Ac-TMDVADR-NH2 [reference compound]
joint inflammation (paw swelling) vs PBS [1]: no effect on footpad swelling
hind paws that remained healthy (paw swelling less than 2 mm) [1]: 33%

TRMTADVDR (not fully specified (C-terminus)) [9-mer RA peptide]
paw swelling response vs PBS ([1]; 25 μg per injection i.p.): did not show significant difference in paw swelling response
paw swelling response vs PBS ([1]; 100 μg per injection i.p.): did not show significant difference in paw swelling response
paw swelling response vs PBS ([1]; 150 μg per injection i.p.): significant reduction in paw swelling

Ac-MTADV-NH2 [5-mer protected RA peptide]
joint inflammation (paw swelling) vs PBS [1]: reduces joint inflammation
suppressive effect on cell survival compared to the 5-mer RA peptide (SEQ ID NO: 1) ([2]; MTT assay): improved the suppressive effect
joint inflammation (footpad swelling) vs PBS ([3]; 10 μg per injection i.p.): did not induce a significant anti-inflammatory effect
joint inflammation (footpad swelling) vs PBS ([3]; 25 μg per injection i.p.): did not induce a significant anti-inflammatory effect
joint inflammation (paw swelling) vs PBS [3]: reduced the joint inflammation
joint inflammation (paw swelling) vs PBS ([3]; listed as 5-mer protected peptide): significantly inhibit joint inflammation
joint inflammation (footpad swelling) vs PBS ([3]; 200 μg per injection i.p.): reduced the joint inflammation
joint inflammation (footpad swelling) vs PBS ([3]; 600 μg per injection i.p.): reduced the joint inflammation
optimal and lowest dose for CIA inhibition ([3]; doses 10-600 μg i.p.): 70 μg per injection

Ac-TRMTADVDR-NH2 [9-mer protected RA peptide]
joint inflammation (paw swelling) vs PBS [1]: reduce joint inflammation

CSCC[C@H](N)C(=O)N[C@H](C(=O)N[C@@H](C)C(=O)N[C@@H](CC(=O)O)C(=O)N[C@H](C(=O)O)C(C)C)[C@@H](C)O [5-mer RA peptide, MTADV] (H-MTADV-OH)
in-vitro maximal suppressive effect on cell survival [2]: 60%
DTH response (difference in thickness between right and left ears) vs PBS (C57BL/6 mice): did not affect the DTH response
neutralizing antibodies to the peptide in serum [4]: no neutralizing antibodies

B1: Serum Amyloid A (SAA): Serum Amyloid A protein added to the fibroblast culture in combination with the 5-mer peptide (protein)
chain: RSFFSFLGEAFDGARDMWRAYSDMREANYIGSDKYFHARGNYDAAKRGPGGAWAAEVITDARENIQRFFGHGAEDSLADQAANEWGRSGKDPNHFRPAGLPEKY
effect on the 5-mer peptide's inhibition of cell survival ([2]; 50 μg/ml added in combination with the 5-mer peptide): prevents this inhibition
effect on the 5-mer peptide's reduction of fibroblast survival ([2]; escalating concentrations, 5-mer peptide constant at 25 μg/ml): gradually prevented this reduction
